Laboratory results: the NIST ThermoML archive (doi:10.1021/je100734t)

Assay: xn = mol fraction of the nth substance listed
Conditions: 101 kPa, Liquid; for speed of sound: Pulse-echo method

CCCCCCCCCO [nonan-1-ol] + Cc1cccc(C)c1
Conditions | mass density, 293.15 K [kg/m3] | mass density, 303.15 K [kg/m3] | mass density, 313.15 K [kg/m3] | speed of sound, 293.15 K [m/s] | speed of sound, 303.15 K [m/s] | speed of sound, 313.15 K [m/s]
x2 = 0 | 827.7 | 820.82 | 813.88 | 1381 | 1347 | 1314
x2 = 0.066 | 829.52 | 822.53 | 815.47 | 1378 | 1343 | 1310
x2 = 0.127 | 831.23 | 824.14 | 816.98 | 1375 | 1340 | 1306
x2 = 0.1739 | 832.57 | 825.39 | 818.16 | 1373 | 1337 | 1302
x2 = 0.2461 | 834.67 | 827.36 | 820.01 | 1368 | 1332 | 1297
x2 = 0.2913 | 836.03 | 828.63 | 821.21 | 1365 | 1328 | 1293
x2 = 0.3635 | 838.25 | 830.72 | 823.17 | 1361 | 1323 | 1287
x2 = 0.4422 | 840.77 | 833.1 | 825.42 | 1355 | 1317 | 1281
x2 = 0.4872 | 842.27 | 834.52 | 826.76 | 1353 | 1314 | 1277
x2 = 0.5648 | 844.95 | 837.08 | 829.18 | 1348 | 1309 | 1272
x2 = 0.6251 | 847.15 | 839.19 | 831.18 | 1345 | 1305 | 1268
x2 = 0.6873 | 849.54 | 841.47 | 833.35 | 1342 | 1302 | 1264
x2 = 0.7713 | 853 | 844.78 | 836.5 | 1339 | 1299 | 1260
x2 = 0.8507 | 856.56 | 848.19 | 839.76 | 1338 | 1298 | 1258
x2 = 0.9284 | 860.34 | 851.84 | 843.28 | 1339 | 1298 | 1257

CCCCCCCCCO [nonan-1-ol] + Cc1ccccc1C
Conditions | mass density, 293.15 K [kg/m3] | mass density, 303.15 K [kg/m3] | mass density, 313.15 K [kg/m3] | speed of sound, 293.15 K [m/s] | speed of sound, 303.15 K [m/s] | speed of sound, 313.15 K [m/s]
x2 = 0 | 827.7 | 820.82 | 813.88 | 1381 | 1347 | 1314
x2 = 0.0653 | 830.13 | 823.15 | 816.1 | 1380 | 1345 | 1312
x2 = 0.136 | 832.82 | 825.73 | 818.58 | 1378 | 1343 | 1309
x2 = 0.1773 | 834.44 | 827.29 | 820.07 | 1377 | 1341 | 1307
x2 = 0.2281 | 836.48 | 829.25 | 821.95 | 1375 | 1339 | 1304
x2 = 0.2834 | 838.77 | 831.45 | 824.06 | 1373 | 1336 | 1301
x2 = 0.3463 | 841.46 | 834.04 | 826.55 | 1370 | 1334 | 1298
x2 = 0.4203 | 844.78 | 837.24 | 829.63 | 1368 | 1330 | 1295
x2 = 0.4761 | 847.41 | 839.78 | 832.07 | 1366 | 1328 | 1292
x2 = 0.5478 | 850.96 | 843.21 | 835.38 | 1364 | 1326 | 1289
x2 = 0.6327 | 855.43 | 847.54 | 839.57 | 1362 | 1323 | 1286
x2 = 0.7121 | 859.93 | 851.92 | 843.83 | 1361 | 1322 | 1285
x2 = 0.7974 | 865.14 | 856.99 | 848.77 | 1361 | 1322 | 1284
x2 = 0.8695 | 869.88 | 861.63 | 853.31 | 1363 | 1322 | 1284
x2 = 0.9287 | 874.08 | 865.73 | 857.34 | 1365 | 1324 | 1285

CCCCCCCCCCO [decan-1-ol] + Cc1ccccc1C
Conditions | mass density, 293.15 K [kg/m3] | mass density, 303.15 K [kg/m3] | mass density, 313.15 K [kg/m3] | speed of sound, 293.15 K [m/s] | speed of sound, 303.15 K [m/s] | speed of sound, 313.15 K [m/s]
x2 = 0 | 829.98 | 823.1 | 816.27 | 1396 | 1362 | 1329
x2 = 0.0766 | 832.48 | 825.52 | 818.51 | 1394 | 1359 | 1325
x2 = 0.1331 | 834.38 | 827.33 | 820.23 | 1391 | 1356 | 1322
x2 = 0.1823 | 836.1 | 828.96 | 821.79 | 1389 | 1354 | 1319
x2 = 0.2509 | 838.57 | 831.31 | 824.05 | 1386 | 1350 | 1315
x2 = 0.3173 | 841.06 | 833.71 | 826.36 | 1383 | 1347 | 1311
x2 = 0.3896 | 843.95 | 836.48 | 829.02 | 1379 | 1343 | 1307
x2 = 0.4556 | 846.73 | 839.16 | 831.61 | 1376 | 1339 | 1303
x2 = 0.5261 | 849.91 | 842.23 | 834.57 | 1372 | 1335 | 1298
x2 = 0.6054 | 853.77 | 845.95 | 838.18 | 1369 | 1332 | 1294
x2 = 0.6597 | 856.61 | 848.71 | 840.85 | 1367 | 1329 | 1292
x2 = 0.7364 | 860.94 | 852.91 | 844.92 | 1365 | 1327 | 1289
x2 = 0.8029 | 865.03 | 856.89 | 848.8 | 1364 | 1325 | 1287
x2 = 0.873 | 869.74 | 861.49 | 853.27 | 1364 | 1325 | 1287
x2 = 0.9447 | 875.04 | 866.72 | 858.33 | 1366 | 1326 | 1287

CCCCCCCCCO [nonan-1-ol] + CCc1ccccc1
Conditions | mass density, 293.15 K [kg/m3] | mass density, 303.15 K [kg/m3] | mass density, 313.15 K [kg/m3] | speed of sound, 293.15 K [m/s] | speed of sound, 303.15 K [m/s] | speed of sound, 313.15 K [m/s]
x2 = 0 | 827.7 | 820.82 | 813.88 | 1381 | 1347 | 1314
x2 = 0.0611 | 829.32 | 822.34 | 815.3 | 1378 | 1343 | 1309
x2 = 0.1285 | 831.14 | 824.06 | 816.91 | 1374 | 1338 | 1304
x2 = 0.1791 | 832.56 | 825.4 | 818.16 | 1371 | 1335 | 1300
x2 = 0.2466 | 834.5 | 827.23 | 819.87 | 1366 | 1330 | 1294
x2 = 0.3151 | 836.57 | 829.17 | 821.69 | 1362 | 1324 | 1288
x2 = 0.3717 | 838.35 | 830.85 | 823.26 | 1358 | 1320 | 1283
x2 = 0.4254 | 840.12 | 832.51 | 824.82 | 1354 | 1316 | 1279
x2 = 0.5007 | 842.74 | 834.99 | 827.14 | 1349 | 1311 | 1273
x2 = 0.5756 | 845.55 | 837.63 | 829.63 | 1345 | 1306 | 1267
x2 = 0.6411 | 848.19 | 840.11 | 831.97 | 1341 | 1302 | 1263
x2 = 0.7122 | 851.28 | 843.05 | 834.74 | 1339 | 1298 | 1259
x2 = 0.7798 | 854.46 | 846.08 | 837.59 | 1337 | 1296 | 1257
x2 = 0.8557 | 858.37 | 849.81 | 841.14 | 1336 | 1295 | 1255
x2 = 0.9341 | 862.85 | 854.1 | 845.28 | 1338 | 1295 | 1254
